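Cultured in 96-well plates, cells were exposed to test compound for 48 hours across five concentrations. Here, GI50 denotes the concentration required for 50% inhibition of growth. At the TGI there is no net growth.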
Legend:
Experiment in all cases: NCI-60 cell line screen, 48 h
786-0 renal = system: 786-0 renal
A498 renal = system: A498 renal
A549 NSCLC = system: A549 NSCLC
ACHN renal = system: ACHN renal
BT-549 breast = system: BT-549 breast
CAKI-1 renal = system: CAKI-1 renal
CCRF-CEM leukemia = system: CCRF-CEM leukemia
COLO 205 colon = system: COLO 205 colon
DU-145 prostate = system: DU-145 prostate
EKVX NSCLC = system: EKVX NSCLC
HCC-2998 colon = system: HCC-2998 colon
HCT-116 colon = system: HCT-116 colon
HCT-15 colon = system: HCT-15 colon
HL-60(TB) leukemia = system: HL-60(TB) leukemia
HOP-62 NSCLC = system: HOP-62 NSCLC
HOP-92 NSCLC = system: HOP-92 NSCLC
HS 578T breast = system: HS 578T breast
HT29 colon = system: HT29 colon
IGROV1 ovarian = system: IGROV1 ovarian
K-562 leukemia = system: K-562 leukemia
KM12 colon = system: KM12 colon
LOX IMVI melanoma = system: LOX IMVI melanoma
M14 melanoma = system: M14 melanoma
MALME-3M melanoma = system: MALME-3M melanoma
MCF7 breast = system: MCF7 breast
MDA-MB-231 breast = system: MDA-MB-231 breast
MDA-MB-435 = system: MDA-MB-435
MDA-N = system: MDA-N
MOLT-4 leukemia = system: MOLT-4 leukemia
NCI-H226 lung = system: NCI-H226 lung
NCI-H23 lung = system: NCI-H23 lung
NCI-H460 lung = system: NCI-H460 lung
NCI-H522 lung = system: NCI-H522 lung
NCI/ADR-RES ovarian = system: NCI/ADR-RES ovarian
OVCAR-3 ovarian = system: OVCAR-3 ovarian
OVCAR-4 ovarian = system: OVCAR-4 ovarian
OVCAR-5 ovarian = system: OVCAR-5 ovarian
OVCAR-8 ovarian = system: OVCAR-8 ovarian
PC-3 prostate = system: PC-3 prostate
RPMI-8226 leukemia = system: RPMI-8226 leukemia
RXF 393 renal = system: RXF 393 renal
SF-268 CNS = system: SF-268 CNS
SF-295 CNS = system: SF-295 CNS
SF-539 CNS = system: SF-539 CNS
SK-MEL-2 melanoma = system: SK-MEL-2 melanoma
SK-MEL-28 melanoma = system: SK-MEL-28 melanoma
SK-MEL-5 melanoma = system: SK-MEL-5 melanoma
SK-OV-3 ovarian = system: SK-OV-3 ovarian
SN12C renal = system: SN12C renal
SNB-19 CNS = system: SNB-19 CNS
SNB-75 CNS = system: SNB-75 CNS
SR leukemia = system: SR leukemia
SW-620 colon = system: SW-620 colon
T-47D breast = system: T-47D breast
TK-10 renal = system: TK-10 renal
U251 CNS = system: U251 CNS
UACC-257 melanoma = system: UACC-257 melanoma
UACC-62 melanoma = system: UACC-62 melanoma
UO-31 renal = system: UO-31 renal

For `O=S(=O)(Nc1nccs1)c1ccc(Nc2nc(-c3cccs3)nc3ccc(I)cc23)cc1`, the TGI (786-0 renal) was 89.4 µM, the GI50 (A498 renal) was 17.4 µM and the TGI (A498 renal) was > 62.3 µM. For the same molecule, the TGI (A549 NSCLC) was 71.2 µM, the TGI (ACHN renal) was > 75.2 µM and the TGI (BT-549 breast) was 54 µM. For the same molecule, the TGI (CAKI-1 renal) was 48.7 µM, the TGI (CCRF-CEM leukemia) was > 19.9 µM and the TGI (COLO 205 colon) was 38.2 µM. It also gave a TGI (DU-145 prostate) of 46.5 µM, a TGI (EKVX NSCLC) of 48.1 µM and a TGI (HCC-2998 colon) of 51.5 µM. The TGI (HCT-116 colon) was 36.8 µM, the TGI (HCT-15 colon) was > 80.9 µM and the TGI (HL-60(TB) leukemia) was > 89.3 µM. For the same molecule, the TGI (HOP-62 NSCLC) was 51.1 µM, the TGI (HOP-92 NSCLC) was 40 µM and the GI50 (HS 578T breast) was 14 µM. For the same molecule, the TGI (HS 578T breast) was > 70 µM, the TGI (HT29 colon) was 51.7 µM and the TGI (IGROV1 ovarian) was 58.7 µM. For the same molecule, the TGI (K-562 leukemia) was > 55.8 µM, the TGI (KM12 colon) was 44.1 µM and the TGI (LOX IMVI melanoma) was 51.8 µM. For the same molecule, the TGI (M14 melanoma) was 58.5 µM, the TGI (MALME-3M melanoma) was 44.2 µM and the TGI (MCF7 breast) was > 100 µM. For the same molecule, the GI50 (MDA-MB-231 breast) was > 37.8 µM, the TGI (MDA-MB-231 breast) was > 57.2 µM and the TGI (MDA-MB-435) was 44 µM. The TGI (MDA-N) was > 100 µM, the TGI (MOLT-4 leukemia) was > 62.4 µM and the TGI (NCI-H226 lung) was 74.8 µM. For the same molecule, the TGI (NCI-H23 lung) was > 75.8 µM, the TGI (NCI-H460 lung) was > 81.6 µM and the TGI (NCI-H522 lung) was > 73.1 µM. For the same molecule, the TGI (NCI/ADR-RES ovarian) was > 100 µM, the TGI (OVCAR-3 ovarian) was 39.9 µM and the TGI (OVCAR-4 ovarian) was 63.2 µM. For the same molecule, the TGI (OVCAR-5 ovarian) was 86.3 µM, the TGI (OVCAR-8 ovarian) was > 69.4 µM and the TGI (PC-3 prostate) was 32.7 µM. For the same molecule, the TGI (RPMI-8226 leukemia) was 20.1 µM, the TGI (RXF 393 renal) was > 92.2 µM and the TGI (SF-268 CNS) was > 100 µM. For the same molecule, the TGI (SF-295 CNS) was 43.1 µM, the TGI (SF-539 CNS) was 68.3 µM and the TGI (SK-MEL-2 melanoma) was > 77.9 µM. It also gave a TGI (SK-MEL-28 melanoma) of 56 µM, a TGI (SK-MEL-5 melanoma) of 28.4 µM and a TGI (SK-OV-3 ovarian) of 67 µM. The TGI (SN12C renal) was > 74.6 µM, the TGI (SNB-19 CNS) was > 93 µM and the TGI (SNB-75 CNS) was 74 µM. The TGI (SR leukemia) was 68.4 µM, the TGI (SW-620 colon) was > 59.6 µM and the TGI (T-47D breast) was 56.6 µM. For the same molecule, the TGI (TK-10 renal) was 44.5 µM, the TGI (U251 CNS) was 54.7 µM and the TGI (UACC-257 melanoma) was > 65.7 µM. For the same molecule, the TGI (UACC-62 melanoma) was 52.6 µM and the TGI (UO-31 renal) was 65.1 µM.
For `CC1=CC(C)C(C)N(CC2=NCCN2)c2ccccc21` (stereo unspecified), the TGI (786-0 renal) was > 100 µM, the TGI (A498 renal) was > 100 µM and the TGI (A549 NSCLC) was > 100 µM. The TGI (ACHN renal) was > 100 µM, the TGI (BT-549 breast) was > 100 µM and the TGI (CAKI-1 renal) was > 100 µM. For the same molecule, the TGI (CCRF-CEM leukemia) was > 100 µM, the TGI (COLO 205 colon) was 32.3 µM and the TGI (DU-145 prostate) was > 100 µM. The TGI (EKVX NSCLC) was > 100 µM, the TGI (HCC-2998 colon) was 33.9 µM and the TGI (HCT-116 colon) was > 100 µM. For the same molecule, the TGI (HCT-15 colon) was > 100 µM, the TGI (HL-60(TB) leukemia) was > 89.3 µM and the TGI (HOP-62 NSCLC) was > 100 µM. The TGI (HOP-92 NSCLC) was 45.6 µM, the TGI (HS 578T breast) was > 100 µM and the TGI (HT29 colon) was 45.8 µM. For the same molecule, the TGI (IGROV1 ovarian) was > 100 µM, the TGI (K-562 leukemia) was > 100 µM and the TGI (KM12 colon) was > 100 µM. For the same molecule, the TGI (LOX IMVI melanoma) was > 100 µM, the TGI (M14 melanoma) was 32.7 µM and the TGI (MALME-3M melanoma) was 44.6 µM. The TGI (MCF7 breast) was > 100 µM, the TGI (MDA-MB-231 breast) was > 100 µM and the TGI (MDA-MB-435) was > 100 µM. For the same molecule, the TGI (MDA-N) was > 100 µM, the TGI (MOLT-4 leukemia) was > 100 µM and the TGI (NCI-H226 lung) was > 100 µM. The TGI (NCI-H23 lung) was > 100 µM, the TGI (NCI-H460 lung) was > 100 µM and the TGI (NCI-H522 lung) was > 100 µM. For the same molecule, the TGI (NCI/ADR-RES ovarian) was > 100 µM, the TGI (OVCAR-3 ovarian) was > 100 µM and the TGI (OVCAR-4 ovarian) was > 100 µM. The TGI (OVCAR-5 ovarian) was > 100 µM, the TGI (OVCAR-8 ovarian) was > 100 µM and the TGI (PC-3 prostate) was > 100 µM. For the same molecule, the TGI (RPMI-8226 leukemia) was > 100 µM, the TGI (RXF 393 renal) was > 89.9 µM and the TGI (SF-268 CNS) was > 100 µM. The TGI (SF-295 CNS) was > 100 µM, the TGI (SF-539 CNS) was > 100 µM and the TGI (SK-MEL-2 melanoma) was > 92.1 µM. The TGI (SK-MEL-28 melanoma) was 38.5 µM, the TGI (SK-MEL-5 melanoma) was 36.4 µM and the TGI (SK-OV-3 ovarian) was > 100 µM. For the same molecule, the TGI (SN12C renal) was > 100 µM, the TGI (SNB-19 CNS) was > 100 µM and the TGI (SNB-75 CNS) was > 85.5 µM. For the same molecule, the TGI (SR leukemia) was > 82.4 µM, the TGI (SW-620 colon) was > 100 µM and the TGI (T-47D breast) was > 100 µM. The TGI (TK-10 renal) was > 100 µM, the TGI (U251 CNS) was > 100 µM and the TGI (UACC-257 melanoma) was 37.1 µM. The TGI (UACC-62 melanoma) was > 100 µM and the TGI (UO-31 renal) was > 100 µM.
